Assay results as given in US11596716B2, “Compounds and matrices for use in bone growth and repair” (Human BioMolecular Research Institute, priority 2013, dated 2023).
Several values for one entry are separate records, joined by “and”; a condition that tells them apart may be missing. Identical values can stand only once.

Key:
hMSCs [1] = test: Transwell migration of hMSCs to calcium phosphate matrix; assay type: cell-based, human
Experimental: Human MSC migration to the site of bone injury is an important part of the repair process. […] After 8 hrs, compounds were washed off the cells and cells placed in a traditional transwell migration system. The top reservoir contained serum-free DMEM and the bottom reservoir contained DMEM plus 2% FBS. After incubation overnight, non-migrated cells were removed, migrated cells (stuck in the bottom chamber) were then fixed with 70% EtOH (40 mins) and total migrated cells were counted under a microscope after staining with 1 mg/mL of crystal violet (1 hr). hMSCs treated with compound 2 (500 nM, 8 hr) induced a 10-fold greater cell migration to the matrix than DMSO-pre-treated cells under the conditions described above. In a separate experiment, matrix that was pre-coated with compound 4 (as prepared in Example 5) was placed in the bottom chamber and migration of hMSCs from the top chamber was evaluated. Compound 4-coated matrix induced a 2-fold increase in cell migration to the matrix compared to DMSO-treated cells.
hMSC migration was analyzed by using calcium phosphate matrix that had been pre-adsorbed with compounds 1 or 2 (500 nM, as described in Example 5) and studied in the transwell system (2% serum, described above). Compound 1 and 2 induced 3.5-fold and 1.9-fold more cell migration than non-coated ceramic. While non-limiting, these examples show the utility of the approach for increased cell migration and localization to the calcium phosphate ceramic matrix when compounds of the disclosure are present. Use of compounds of Formula II, IV, and VI to pre-coat the ceramic and also pretreat the cells is also of utility.

[2] = tested on: cells released from demineralized allogeneic bone chips; test: Allograft-derived cells cultured with compound and TCP matrix; assay type: cell-based; settings: 500 nM, TCP matrix 5 mg/mL, 8 days
Experimental: Demineralized allogeneic bone chips were thawed at 37° C. quickly with gentle agitation, washed with Dulbecco's PBS (DPBS) and centrifuged at 600×g for 5 min at room temperature. The material was digested with a collagenase and the mixture was filtered through a 100 µm cell strainer and the remaining bone fragments were rinsed with DPBS. The released cells were centrifuged at 1,200× rpm for 5 min at room temperature, resuspended and plated in 10 mL α-MEM media plus 20% FBS plus 1×Glutmax. After three days at 37° C. and 5% CO2, the TCP matrix (5 mg/mL) was added followed by compound 1 (500 nM) (or other compounds of Formula II, IV or VI) and the cell culture media was replaced every two days with fresh media-containing compound for 8 days. Cells were harvested after 8 days for determination of ALP activity, osteogenic mRNA biomarkers (i.e., VDR and collagen I, and cell proliferation. Cell proliferation increased 2.5-fold. VDR and collagen/mRNA expression increased 4.5-fold and 2.2-fold, respectively. Similar to isolated hMSCs in the presence of matrix, allograft-derived cells also respond to the presence of compounds and matrix to afford osteogenesis. The cells can be used in implantation as described in Examples 19 and 20.

hMSCs [3] = test: TLR4/TLR3 mRNA expression ratio by qPCR in hMSCs; assay type: cell-based, human; settings: 500 nM, 8 days
Description: TLRs are modulators of hMSC differentiation. TLRs (TLR1-10) mRNA could be detected by qPCR in hMSCs. TLR4 is a biomarker for osteogenesis and TLR3 is a biomarker for adipogenesis. […]

[4] = tested on: Human embryonic stem cells E15 (hESCs); test: qPCR of TLR4/TLR3 ratio and Collagen I in human embryonic stem cells E15; assay type: cell-based; settings: 500 nM, 8 days
Experimental: Human embryonic stem cells E15 (hESCs) obtained from ATCC with less than 15 passages were cultured at 37° C. in 5% CO2 in DMEM media supplemented with 15% heat inactivated FBS and 1× GlutaMax. TLRs are biomarkers of stem cell differentiation. TLR4 expression is an osteogenic biomarker and TLR3 expression is an adipogenic biomarker. […]

hMSCs [5] = test: Alcian Blue staining (chondrogenesis) in hMSCs; assay type: cell-based, human; settings: 25 days; for effect on chondrogenesis, densitometry of cell culture images: 500 nM, TCP 5 mg/mL; for chondrogenesis (Alcian Blue staining) compared to vehicle-treated hMSCs: presence or absence of matrix
Experimental: Alcian Blue Staining: Alcian Blue staining was used to stain for the presence of chondrocytes. Alcian Blue solution (1% wt/volume, acetic acid, pH 2.5). hMSCs were cultured as described above for the Alizarin Red S Staining assay (Ex. 7) in 48-well plates. After 25 days of cell culture, cells were fixed with 4% formaldehyde (40 mins) at room temperature, stained for 1 hr followed by washing with dH2O (1 mL) until water was clear (without blue elutes). Cell culture images were taken under a microscope and quantified by densitometry.

hMSCs [6] = test: qPCR of target gene mRNA expression in hMSCs; assay type: cell-based, human
Experimental: qPCR detection of osteogenic markers: Cells were cultured with compound in the presence or absence of matrix as described above, but using 96-well plate format. Total RNA was extracted from cells (as above) using Trizol. cDNA was made using 750 ng of total RNA with Bio-Rad iscript kit and was diluted 20-fold before being used for qPCR. qPCR was conducted under the following conditions: 95° C., 2 min; 95° C., 10 s and 60° C., 45 s for 40 cycles; 60° C. for 71 cycles for melt curve. qPCR results were analyzed by the ΔΔCt method. 18s rRNA was used as an internal standard. This protocol was applied to hMSC and E15 cells.
Runx2 and BMP-2 are osteogenic markers; Axin2, Wnt3a, and Sox 9 are Wnt-inducible gene markers.
The assay for mRNA expression followed the same procedure with hMSCs as described for C2C12 cells (Example 7).

Solubility in water = assay type: physicochemical
[7] = Prodrug hydrolysis in phosphate buffer determined by HPLC; assay type: physicochemical
Experimental: 3 provided 54 (described in Example 3) through prodrug hydrolysis as determined by HPLC.
Within 5 minutes, the hydrolysis of 3 produced compound 84 (described in Example 3) that is the mono hydrolysis product of the bis(amino acid) pro-drug 3. Within 15 minutes, compound 54 that is the fully hydrolyzed product from 3 (and 84) was prominent in solution. By 77 minutes, most of 3 was hydrolyzed while compound 84 and compound 54 persisted.

[8] = compound 500 nM, matrix 5 mg/mL, 3 days

CC(=O)N1c2ccc(C)cc2[C@H](Nc2ccc(C)cc2)C[C@@H]1C (relative stereo) [Compound 1, cis-1-acetyl-2,6-dimethyl-N-(p-methylphenyl)-1,2,3,4-tetrahydroquinolin-4-amine]
cell migration to matrix pre-adsorbed with compound versus non-coated ceramic (hMSCs [1]; 500 nM, transwell, 2% serum): 3.5 fold | Cell proliferation increase [2]: 2.5 fold | VDR mRNA expression increase [2]: 4.5 fold | collagen/mRNA expression increase [2]: 2.2 fold | TLR4/TLR3 ratio, compound alone (hMSCs [3]): modest increase

CC(C)[C@H](N)C(=O)Oc1ccc(/C=C/C(O)=C2\CCC/C(=C\c3ccc(OC(=O)[C@@H](N)C(C)C)cc3)C2=O)cc1 [Compound 4, 4-((1E,3Z)-3-(3-((E)-4-((L-valyl)oxy)benzylidene)-2-oxocyclohexylidene)-3-hydroxyprop-1-en-1-yl)phenyl L-valinate]
cell migration to compound-coated matrix compared to DMSO-treated cells (hMSCs [1]; matrix pre-coated with compound in bottom chamber): 2 fold | increase of TLR4/TLR3 ratio in hESCs [4]: 2 fold | effect on chondrogenesis, densitometry of cell culture images (hMSCs [5]): modestly inhibitory on chondrogenesis | chondrogenesis (Alcian Blue staining) compared to vehicle-treated hMSCs (hMSCs [5]): no increase in chondrogenesis

CC(C)[C@H](N)C(=O)Oc1ccc(C=CC(=O)C=C(O)C=Cc2ccc(OC(=O)[C@@H](N)C(C)C)cc2)cc1 [Compound 3, (2S,2′S)—O,O′-(3-hydroxy-5-oxohepta-1,3,6-triene-1,7-diyl)bis(4,1-phenylene) bis(2-amino-3-methylbutanoate)]
TLR4/TLR3 ratio, compound alone (hMSCs [3]): modest increase | increase of TLR4/TLR3 ratio in hESCs [4]: 2 fold | effect on chondrogenesis, densitometry of cell culture images (hMSCs [5]): modestly inhibitory on chondrogenesis | chondrogenesis (Alcian Blue staining) compared to vehicle-treated hMSCs (hMSCs [5]): no increase in chondrogenesis | Collagen 1 mRNA Fold-Change +/− SD, −matrix (hMSCs [6]; 500 nM, 8 days): 1.5 fold and 1.5 ± 0.2 fold | Osteocalcin mRNA Fold-Change +/− SD, −matrix (hMSCs [6]; 500 nM, 8 days): 0.5 ± 0.1 fold | VDR mRNA Fold-Change +/− SD, −matrix (hMSCs [6]; 500 nM, 8 days): 5.0 ± 0.5 fold | decrease of Sox9 expression (hMSCs [6]; 500 nM, matrix 5 mg/mL, 3 days): 40% | decrease of Wnt repressor gene Axin2 expression (hMSCs [6]; 500 nM, matrix 5 mg/mL, 3 days): 80% | ALP mRNA Fold-Change +/− SD, +matrix (hMSCs [6]; 500 nM, matrix 5 mg/mL, 8 days): 55 fold and 55.0 ± 5.0 fold | Collagen 1 mRNA Fold-Change +/− SD, +matrix (hMSCs [6]; 500 nM, matrix 5 mg/mL, 8 days): 1.8 ± 0.2 fold | Osteocalcin mRNA Fold-Change +/− SD, +matrix (hMSCs [6]; 500 nM, matrix 5 mg/mL, 8 days): 5.2 ± 0.5 fold | VDR mRNA Fold-Change +/− SD, +matrix (hMSCs [6]; 500 nM, matrix 5 mg/mL, 8 days): 45 fold and 45.0 ± 5.0 fold | BMP-2 mRNA fold-changes +/− SD, −matrix (hMSCs [6]; compound 500 nM, 3 days): 2.6 ± 0.2 fold | Runx2 mRNA fold-changes +/− SD, −matrix (hMSCs [6]; compound 500 nM, 3 days): 101.3 ± 10.0 fold | Sox9 mRNA fold-changes +/− SD, −matrix (hMSCs [6]; compound 500 nM, 3 days): 0.1 ± 0.01 fold | Wnt3a mRNA fold-changes +/− SD, −matrix (hMSCs [6]; compound 500 nM, 3 days): 1 ± 0.1 fold | Wnt5a mRNA fold-changes +/− SD, −matrix (hMSCs [6]; compound 500 nM, 3 days): 1 ± 0.1 fold | Axin2 mRNA fold-changes +/− SD, +matrix (hMSCs [6]; [8]): 0.2 ± 0.02 fold | BMP-2 mRNA fold-changes +/− SD, +matrix (hMSCs [6]; [8]): 7.5 fold and 7.5 ± 0.7 fold | Runx2 mRNA fold-changes +/− SD, +matrix (hMSCs [6]; [8]): 8.2 fold and 8.2 ± 0.8 fold | Sox9 mRNA fold-changes +/− SD, +matrix (hMSCs [6]; [8]): 0.6 ± 0.1 fold | Wnt3a mRNA fold-changes +/− SD, +matrix (hMSCs [6]; [8]): 82.4 fold and 82.4 ± 8.0 fold | Wnt5a mRNA fold-changes +/− SD, +matrix (hMSCs [6]; [8]): 6.3 fold and 6.3 ± 0.6 fold | solubility in water (Solubility in water): greater than 10 mg/mL | persistence of compound ([7]; pH 6.5 PBS): ≥ 77 min | time until compound 54 (fully hydrolyzed product) was prominent in solution ([7]; pH 6.5 PBS): ≤ 15 min | time until hydrolysis produced compound 84 (mono hydrolysis product) ([7]; pH 6.5 PBS): ≤ 5 min | persistence for over an hour in pH 7.5 buffer ([7]; pH 7.5 buffer, versus pH 6.5 phosphate buffer (10 mM)): not in pH 7.5 buffer
